Source: article PMC13095408, “DBeQ derivative targets vacuolar protein sorting 4 functions in cancer cells and suppresses tumor growth in mice” (The Journal of Pharmacology and Experimental Therapeutics, 2025)

Assays:
[1] = system: GFP-CHMP4B-expressing U2OS cells; assay: GFP-CHMP4B accumulation cell-based assay (high-content microscopy); conditions: for 4-107-induced GFP-CHMP4B accumulation on co-treatment: 100 nM BafA1 or 50 μM CQ with 2 μM 4-107, starved, 2 hours
Description: Plates were then scanned using the 20× objective for 1 hour with ≥100 cells/well across 6 fields/well. […] For all other assays, the cells were cultured overnight in black glass-bottom 96-well plates (Cellvis; P96-1.5H-N) then stained, rinsed, and treated with SM containing the indicated compounds (0.1% DMSO or 0.1% DMSO/0.1% ethanol [vehicle] final). Plates were scanned using the 20× NA .70 objective at the indicated intervals with ≥ 300 cells/well across 3 fields/well. […]

VPS4B = biological target: T1, VPS4B (Homo sapiens, UniProt O75351); assay: VPS4B ATPase activity, EnzChek Phosphate assay; assay type: biochemical; set-up: His tag (pET28a vector-encoded) (N); made in house; host or cells: Escherichia coli BL21(DE3)
T1 sequence (O75351 1-444): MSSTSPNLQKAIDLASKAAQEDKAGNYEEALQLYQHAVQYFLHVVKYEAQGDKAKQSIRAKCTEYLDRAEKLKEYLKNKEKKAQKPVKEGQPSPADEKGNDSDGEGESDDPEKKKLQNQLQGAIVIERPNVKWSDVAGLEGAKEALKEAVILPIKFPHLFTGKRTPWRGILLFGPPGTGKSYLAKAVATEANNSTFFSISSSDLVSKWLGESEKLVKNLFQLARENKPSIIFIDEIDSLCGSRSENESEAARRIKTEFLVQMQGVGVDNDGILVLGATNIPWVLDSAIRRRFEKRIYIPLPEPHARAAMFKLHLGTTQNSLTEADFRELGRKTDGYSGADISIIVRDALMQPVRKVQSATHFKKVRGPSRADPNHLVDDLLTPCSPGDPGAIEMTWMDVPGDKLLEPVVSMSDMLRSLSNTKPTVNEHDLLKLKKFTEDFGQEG
Description: VPS4B and VCP ATPase activities were measured using the EnzChek Phosphate assay for the quantification of released phosphate. Assay buffers were based on literature precedents ([Cupido et al, 2019], [2021]) as follows: VPS4B buffer (20 mM HEPES-KOH, pH 7.4, 25 mM KOAc, 2 mM MgCl2, 5 mM (NH4)2SO4, 0.5 mM CaCl2, 2.5 mM DTT, 0.1 mg/mL BSA, 0.005% v/v Triton X-100), VCP buffer (20 mM HEPES-NaOH, pH 7.4, 20 mM NaCl, 10 mM MgCl2, 5 mM (NH4)2SO4, 0.5 mM CaCl2, 2.5 mM DTT, 0.1 mg/mL BSA, 0.005% v/v Triton X-100). In black clear-bottom 384-well plates, 22.5 μL of 5% DMSO or 40× test compounds diluted in the respective assay buffer was added to each well. ATPases were diluted to 1 μM in the respective buffers containing 2× EnzChek Phosphate assay coupling reagents of 400 μM MESG and 2 U of PNP, then 25 μL was added to each well. Plates were mixed at 1000 rpm for 30 minutes at RT while being protected from light. The reaction was initiated by adding 2.5 μL of 20 mM MgATP or water followed by mixing at 1200 rpm for 30 seconds at RT. Plates were measured at 360 nm using a CLARIOstar plate reader (BMG LABTECH) for 20 minutes at 37 °C. ATPase activity was calculated as the amount of phosphate released over a 5-minute interval under linear initial velocity conditions. The remaining ATPase activity was calculated by normalizing compound-treated activity values to the DMSO control. IC50 was calculated by fitting normalized values to a sigmoidal dose-response curve with Hill slope = −1 using Graph Pad Prism 10.0.
To identify VPS4i, we developed enzyme- and cell-based VPS4 functional assays to serve as VPS4i-screening platforms. For the enzyme-based assay, we used the colorimetric EnzChek Phosphate assay that detects free phosphate with the advantage of continuous measurement of ATP hydrolysis over time. […] Due to the high sequence and structural similarity of AAA-ATPases, we also established a VCP ATPase assay to evaluate hit selectivity. […] For the cell-based assay, our approach was based on how VPS4 inhibition causes the accumulation of ESCRT-III ([Babst et al, 1998]; [Katoh et al, 2003]). We used an N-terminal GFP-tagged CHMP4B reporter system because it is the most abundant ESCRT-III subunit ([Katoh et al, 2004]; [Teis et al, 2008]). Our aim was to test compounds under short-term serum and amino acid starvation to stimulate ESCRT activity for easier detection of inhibitors ([Takahashi et al, 2018], [2019]). […] Overall, we established 2 systems for VPS4i screening, a VPS4B ATPase activity assay and a GFP-CHMP4B accumulation cell-based assay.

[2] = screened at 1 µM, mean ± S.D., Supplemental Table 2
[3] = screened at 1 μM, starvation media, 1 hour, foci intensity per cell normalized to 4-107, mean ± SD, Table 1
[4] = remaining ATPase activity, screened at 5 μM, mean ± SD, Table 1
[5] = screened at 5 µM, mean ± S.D., Supplemental Table 2

Compound | VPS4B ATPase (% DMSO) (VPS4B; [5]) | GFP-CHMP4B (% 4-107) [1, 2] [% 4-107] | also measured
CO/C1=C\C(C)=C\[C@@H](C)[C@@H](O)[C@@H](C)C/C(C)=C/C=C/[C@H](OC)[C@@H]([C@@H](C)[C@@H](O)[C@H](C)[C@@]2(O)C[C@@H](O)[C@H](C)[C@@H](C(C)C)O2)OC1=O [BafA1, bafilomycin A1, reference compound] | – | – | 4-107-induced GFP-CHMP4B accumulation on co-treatment [1]: blocked
CCN(CC)CCCC(C)Nc1ccnc2cc(Cl)ccc12 (centres unmarked) [CQ, chloroquine diphosphate, reference compound] | – | – | 4-107-induced GFP-CHMP4B accumulation on co-treatment [1]: blocked
NCc1ccccc1 [Compound 2] | 55.31 ± 5.04 | 6.69 ± 3.07 | GFP-CHMP4B (% 4-107) [1, 3]: 6.69 ± 3.07 % 4-107; VPS4B ATPase (% DMSO) (VPS4B; [4]): 55.31 ± 5.04 % DMSO
COc1cccc2c(NCc3ccccc3)nc(Cl)nc12 [Compound 3] | 71.88 ± 3.41 | – | GFP-CHMP4B (% 4-107) ([1]; screened at 1 µM, mean ± S.D., Supplemental Table 2, listed as 5-125): 3.86 ± 2.41 % 4-107; GFP-CHMP4B (% 4-107) [1, 3]: 3.86 ± 2.41 % 4-107; VPS4B ATPase (% DMSO) (VPS4B; [4]): 71.88 ± 3.41 % DMSO
COc1cccc2c(NCc3ccccc3)nc(Cl)nc12 [Compound 4-95] | – | 1.76 ± 0.74 | –
COC(=O)c1cccc(CNc2nc(NCc3cccc(C(=O)OC)c3)c3cccc(OC)c3n2)c1 [Compound 4-131-iii] | 34.70 ± 0.70 | 11.94 ± 9.74 | –
COc1cccc2c(NCc3cccc(C(=O)O)c3)nc(NCc3cccc(C(=O)O)c3)nc12 [Compound 4-131-iv] | 105.12 ± 0.39 | 1.10 ± 0.68 | –
COc1cccc2c(NCc3ccccc3)nc(NCc3ccccc3)nc12 [Compound 4] | – | – | GFP-CHMP4B (% 4-107) ([1]; screened at 1 µM, mean ± S.D., Supplemental Table 2, listed as 5-133): 2.92 ± 2.81 % 4-107; GFP-CHMP4B (% 4-107) [1, 3]: 2.92 ± 2.81 % 4-107; VPS4B ATPase (% DMSO) (VPS4B; [4]): 75.23 ± 0.63 % DMSO; VPS4B ATPase (% DMSO) (VPS4B; screened at 5 µM, mean ± S.D., Supplemental Table 2, listed as 5-133): 75.23 ± 0.63 % DMSO
COc1cccc2c(NCCc3cccc(S(N)(=O)=O)c3)nc(NCCc3ccc(S(N)(=O)=O)cc3)nc12 [Compound 5-15-iv] | 77.37 ± 4.37 | 3.22 ± 0.67 | –
COc1cccc2c(NCc3cccc(OC(F)(F)F)c3)nc(NCc3ccccc3)nc12.Cl [Compound 5-33-iv] | 25.77 ± 2.48 | 5.27 ± 1.53 | –
COc1cccc2c(NCc3ccccc3)nc(NCc3cccc(C(=O)O)c3)nc12 [Compound 5-35-iv] | 88.20 ± 5.24 | 10.92 ± 9.21 | –
COc1cccc2c(NCc3ccccc3)nc(-n3ccc4ccc(C(=O)O)cc43)nc12 [Compound 5-39-iv] | 93.04 ± 0.65 | 1.59 ± 0.93 | –
COC(=O)c1ccc2c(ccn2-c2nc(NCc3ccccc3)c3cccc(OC)c3n2)c1 [Compound 5-41-iii] | 80.70 ± 2.02 | 2.82 ± 1.33 | –
COc1cccc2c(NCc3ccccc3)nc(-n3ccc4cc(C(=O)O)ccc43)nc12 [Compound 5-41-iv] | 87.4 ± 1.43 | 1.29 ± 1.06 | –
COC(=O)c1ccc2ccn(-c3nc(NCCc4ccc(S(N)(=O)=O)cc4)c4cccc(OC)c4n3)c2c1 [Compound 5-43-iii] | 94.98 ± 0.53 | 3.01 ± 1.98 | –
COc1cccc2c(NCCc3ccc(S(N)(=O)=O)cc3)nc(-n3ccc4ccc(C(=O)O)cc43)nc12 [Compound 5-43-iv] | 99.19 ± 4.43 | 1.27 ± 0.69 | –
COC(=O)c1ccc2c(ccn2-c2nc(NCc3ccc(S(N)(=O)=O)cc3)c3cccc(OC)c3n2)c1 [Compound 5-47] | – | 1.41 ± 0.61 | –
Fc1ccc2nc(NCc3ccccc3)nc(NCc3ccccc3)c2c1 [Compound 5-143] | – | 11.12 ± 2.40 | –
COc1cccc2nc(NCc3ccccc3)nc(NCc3ccccc3)c12 [Compound 7-27] | – | 19.55 ± 2.22 | –
COc1ccc2c(Nc3ccccc3)nc(Cl)nc2c1 [Compound 7-41] | – | 17.93 ± 2.08 | –
COc1ccc2c(Nc3ccccc3)nc(NCc3ccccc3)nc2c1 [Compound 7-45] | – | 24.94 ± 5.94 | –
COc1ccc(CNc2nc(NCc3ccccc3)c3cccc(N)c3n2)cc1 [Compound 7-65] | – | 17.36 ± 5.75 | –
Nc1cccc2c(NCc3ccccc3)nc(NCc3ccc(F)cc3)nc12 [Compound 7-69] | – | 20.04 ± 6.12 | –
COc1cccc2c(Nc3ccccc3)nc(NCc3ccccc3)nc12 [Compound 7-75] | – | 11.57 ± 12.42 | –
Nc1cccc2c(NCc3ccccc3)nc(NCc3cccc(F)c3)nc12 [Compound 7-77] | – | 26.24 ± 20.18 | –

More lines, main results first:

VPS4B ATPase (% DMSO) (VPS4B; [5]) | Compound | GFP-CHMP4B (% 4-107) [1, 2] [% 4-107] | also measured
30.96 ± 1.37 | COc1cccc2c(NCCc3ccccc3)nc(NCCc3ccccc3)nc12 [Compound 5-03] | 2.31 ± 1.75 | –
28.5 ± 0.04 | COc1cccc2c(NCc3ccc(Cl)cc3)nc(NCc3ccc(Cl)cc3)nc12 [Compound 5-07] | 14.56 ± 10.71 | –
82.46 ± 1.64 | COc1cccc2c(NCc3ccncc3)nc(NCc3ccncc3)nc12 [Compound 5-11] | 1.10 ± 0.76 | –
86.08 ± 7.25 | COc1cccc2c(NCc3ccc(S(N)(=O)=O)cc3)nc(Cl)nc12 [Compound 5-17] | 2.87 ± 0.27 | –
91.51 ± 3.26 | COc1ncnc2c1ccn2-c1nc(NCc2ccccc2)c2cccc(OC)c2n1 [Compound 5-51] | 2.51 ± 1.24 | –
72.71 ± 0.81 | COc1ncnc2c1ccn2-c1nc(NCCc2ccccc2)c2cccc(OC)c2n1 [Compound 5-53] | 1.68 ± 0.33 | –
